In patent publication US20110250243A1, “NANOPARTICLE COMPOSITIONS” (priority 2008, published 2011):

Experiment: Encapsulation of coumarin-6 in PEC nanoparticles by solvent displacement
Assay type: physicochemical
Conditions: solvent displacement method
Method: Coumarin-6 is used (absorption: 485 nm, emission: 505-525 nm) as it allows to optically detect a potential phagocytosis process and furthermore, is a suitable model for a lipophilic agent. Due to its lipophilic characteristics and low water solubility, coumarin-6 can suitably be processed by the solvent displacement method, in order to achieve a high packaging rate. The encapsulation efficiency is very high and lies close to 100%. The preparation of the loaded nanoparticles is also performed using the modified solvent-displacement method as described in example 2. Coumarin-6 is used in a stock solution of 50 μg/ml in acetonitrile (the stock solution is stored in the refrigerator and protected by light e.g. by using aluminium foil) and the PEC 95 and 99 polymers as a 10 mg/ml stock solution in acetonitrile. All samples are set up in triplicate. For loading the nanoparticles the required amounts of PEC stock solution and coumarin-6 stock solution are mixed, filled up with acetonitrile up to 1.5 ml and vortexed (see table 2). This solution is then injected into the PVA solution according to the usual schema (see above).

## CCN(CC)c1ccc2cc(-c3nc4ccccc4s3)c(=O)oc2c1 [coumarin-6]
  Encapsulation efficiency: ~100%
